These results are taken from PubChem BioAssay (NCI).

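Interpolation was linear, between the two tested concentrations surrounding the appropriate level; five concentrations were tested over 48 hours in 96-well plates. Definition used: TGI = concentration required for complete inhibition of growth.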

What all share (assay): DTP human tumour cell line panel, 48 h
The subject of test [1] is BT-549 breast.
Test [2] concerns RXF 393 renal.
Test [3] concerns DU-145 prostate.
Test [4] relates to M14 melanoma.
Test [5] deals with IGROV1 ovarian.
Test [6] has as its system U251 CNS.
Test [7] deals with SF-539 CNS.

Consider `Cc1cn(CCCCC2=NCCCN2)c(=O)[nH]c1=O`, for which the concentration for total growth inhibition (TGI) (as a rule, the concentration at which net growth stops) in test [1] was over 20.5 µM; in test [2], over 32.6 µM; in test [3] it was over 34.4 µM; in test [4], over 32.4 µM; in test [5], over 33.8 µM; in test [6] it was over 46.4 µM. The molecule further had a total growth inhibition concentration (TGI) in test [7] of over 22 µM.

As to `c1ccc2oc(-c3ccc(-c4nc5ccccc5o4)c4c3CC4)nc2c1`, the TGI in test [1], in test [2], in test [3], in test [4], in test [5] and in test [6] was over 100 µM throughout. The molecule further returned a concentration for total growth inhibition (TGI) in test [7] of over 100 µM.

As to `COC(=O)C(CCSC)NC(=O)CNC(=O)CSc1nnc(COc2ccc(Cl)cc2)n1-c1ccccc1` (configuration not stated), the concentration for total growth inhibition (TGI) worked out at 30.6 µM in test [1]; 35.9 µM in test [2]; 55.8 µM in test [3]; 33.6 µM in test [4]; 30.2 µM in test [5]; 31 µM in test [6]. In addition, in test [7], the TGI came out at 35 µM.

In the case of `CC1(C)CNCC(C)(OCc2ccccc2)C(=O)NC(C)(C)CNCC(C)(OCc2ccccc2)C(=O)N1` (configuration not stated), the TGI in test [1], in test [2], in test [3], in test [4], in test [5] and in test [6] was over 10 µM throughout. The molecule further gave a total growth inhibition concentration (TGI) in test [7] of over 10 µM.

As for `CC(=O)C1=CN=C2C(=O)N(c3ccccc3)N(C)C12C` (configuration not stated), the TGI in test [1], in test [2], in test [3], in test [4], in test [5] and in test [6] was over 100 µM throughout. The same molecule registered a TGI in test [7] of over 100 µM.

`O=[N+]([O-])c1ccc(C(=S)Nc2ccccc2)o1`: the TGI was found to be 14.1 µM in test [1]; 15.2 µM in test [2]; 19.9 µM in test [3]; 14 µM in test [4]; 17.8 µM in test [5]; 3.05 µM in test [6]. Further, the TGI in test [7] stood at 4.58 µM.

For the molecule `N#Cc1c2c(c(N)oc1=O)C(c1ccccc1)CC(=O)N2` (configuration not stated), the TGI in test [1], in test [2], in test [3], in test [4], in test [5] and in test [6] was over 100 µM in each case. Besides, the TGI in test [7] was over 100 µM.

Regarding `NNC(=O)c1c(-c2cccnc2)cnc2ccccc12`, the total growth inhibition concentration (TGI) in test [1], in test [2], in test [3], in test [4], in test [5] and in test [6] was over 100 µM in each case. Besides, the TGI in test [7] is over 100 µM.

Take `O=C(/C=C/c1ccc(Oc2cc(C(=O)/C=C/c3ccc(O)cc3)c(O)cc2O)cc1)c1ccc(O)cc1O`: the TGI in test [1] stood at 39.3 µM; in test [2], 24.8 µM; in test [3], 12.8 µM; in test [4], 24.1 µM; in test [5], 11.3 µM; in test [6], 20.7 µM. The molecule further yielded a TGI in test [7] of 6.1 µM.

`O=C(NC1CCN(Cc2ccccc2)CC1)c1ccc(I)cc1`: the TGI in test [1] was over 100 µM; in test [2], 85.7 µM; in test [3] it was over 100 µM; in test [4] it was over 100 µM; in test [5], over 100 µM; in test [6], over 100 µM. In test [7], this molecule showed a TGI of over 100 µM.

For the molecule `c1cc2nnc1SCCCSc1ccc(nn1)SCCCS2`, the concentration for total growth inhibition (TGI) in test [1] is over 100 µM; in test [2], 75.5 µM; in test [3] it was over 100 µM; in test [4], over 57.6 µM; in test [5], over 81.3 µM; in test [6] it was over 86.9 µM. The same molecule yielded a total growth inhibition concentration (TGI) in test [7] of over 93.9 µM.

On to `O=C1CSC2(CC(/C=C/c3cccc([N+](=O)[O-])c3)=NN2c2cccc(S(=O)(=O)O)c2)N1c1nc2ccccc2s1` (configuration not stated), for which the TGI is 32.7 µM in test [1]; over 100 µM in test [2]; 40.6 µM in test [3]; 92.6 µM in test [4]; 36.8 µM in test [5]; 36.3 µM in test [6]. Further, the TGI in test [7] is over 100 µM.

`CCOC(=O)C(C(=O)OCC)=C1NC2(c3ccccc3Nc3ccccc32)C(C#N)S1` (configuration not stated): the TGI is 27.5 µM in test [1]; 33 µM in test [2]; 28.4 µM in test [3]; 19.8 µM in test [4]; 25.6 µM in test [5]; 24.5 µM in test [6]. The TGI in test [7] worked out at 23 µM.

Regarding `O=C(/C=C/c1ccccc1)Oc1ccc(C(=O)/C=C/c2ccc(Cl)cc2)cc1`, the TGI in test [1], in test [2], in test [3], in test [4], in test [5] and in test [6] was over 100 µM each time. This molecule displayed a TGI in test [7] of over 100 µM.

Regarding `Clc1cc(Cl)cc(N=C/C=C/Nc2cc(Cl)cc(Cl)c2)c1`, the TGI is over 100 µM in test [1]; 36.8 µM in test [2]; 44.3 µM in test [3]; 47.6 µM in test [4]; 55.8 µM in test [5]; 33.5 µM in test [6]. The same molecule yielded a TGI in test [7] of 58.9 µM.

`CC(C)=CCN1CC(C)C(=O)Nc2ccccc21` (configuration not stated): the concentration for total growth inhibition (TGI) in test [1], in test [2], in test [3], in test [4], in test [5] and in test [6] was over 100 µM throughout. For the same molecule, the total growth inhibition concentration (TGI) in test [7] is over 100 µM.
